From PMC6751662, “Pharmacological and functional similarities of the human neuropeptide Y system in C. elegans challenges phylogenetic views on the FLP/NPR system” (Cell Communication and Signaling : CCS, 2019)

What was measured:
Type in all cases: cell-based, C. elegans
[1] = biological target: T1, NPR-5b (Caenorhabditis elegans, UniProt Q6F3C9); experiment: IP accumulation assay, endogenous Gαq + mock, NPR-5b; details: 1 h, HBSS + 20 mM LiCl, HEK293 receptor + empty vector, HTRF IP-One, mean of >=3 independent experiments
T1 sequence (Q6F3C9 1-433): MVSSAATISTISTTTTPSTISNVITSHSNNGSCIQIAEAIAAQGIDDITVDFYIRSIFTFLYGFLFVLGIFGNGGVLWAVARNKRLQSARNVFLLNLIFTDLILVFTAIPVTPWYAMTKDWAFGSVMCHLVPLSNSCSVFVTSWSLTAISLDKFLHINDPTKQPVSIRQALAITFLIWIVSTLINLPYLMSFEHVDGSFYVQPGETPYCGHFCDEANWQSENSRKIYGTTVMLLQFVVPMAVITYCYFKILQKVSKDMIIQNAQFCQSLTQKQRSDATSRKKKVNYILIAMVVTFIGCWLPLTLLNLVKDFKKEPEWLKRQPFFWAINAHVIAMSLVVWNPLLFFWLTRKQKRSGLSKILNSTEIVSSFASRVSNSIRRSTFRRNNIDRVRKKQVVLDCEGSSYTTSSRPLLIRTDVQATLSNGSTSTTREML
Experimental: (§1) For measuring IP accumulation, HEK293 cells grown to 70–80% confluency in 6-well plates were transiently co-transfected using Metafectene Pro (2.5 μl/μg DNA; Biontex) with plasmids containing receptor and/or mock (empty pcDNA3.1) (for endogenous Gq-coupling) using 4 μg total DNA in a ratio of 3:1 following the manufacturer’s instructions. For testing Gα16- and GαΔ6qi4myr-coupling, plasmids encoding the corresponding Gα protein were co-transfected instead of mock. Gα16 is naturally promiscuous and stimulates the phospholipase C (PLC) pathway leading to IP production, while the exchange of the C-terminal four amino acids of Gαq for the corresponding residues of Gαi1 in the chimeric GαΔ6qi4myr confers the ability to couple to Gi/o protein-preferring receptors but still stimulate PLC, thus specifically redirecting downstream cellular signaling. 16 h post transfection, the cells were seeded into white 384-well plates at a density of 20,000 cells/well. Media was removed 24 h later and the cells were incubated with the indicated concentration of peptides for 1 h in HBSS + 20 mM LiCl. IP accumulation was measured with the HTRF-based IP-One Gq kit (Cisbio) on a microplate reader (Tecan Spark).
(§2) For in vitro activation, data is presented as mean ± SEM of at least three independent experiments conducted in technical triplicate. […]

[2] = biological target: T2, NPR-1 (Caenorhabditis elegans, UniProt Q18534); experiment: IP accumulation assay, co-transfected Gα16, NPR-1; design: expressed in transfected cells; host or cells: HEK293; details: 1 h, HBSS + 20 mM LiCl, HEK293 receptor + Gα16, HTRF IP-One, mean of >=3 independent experiments
T2 sequence (Q18534 1-457): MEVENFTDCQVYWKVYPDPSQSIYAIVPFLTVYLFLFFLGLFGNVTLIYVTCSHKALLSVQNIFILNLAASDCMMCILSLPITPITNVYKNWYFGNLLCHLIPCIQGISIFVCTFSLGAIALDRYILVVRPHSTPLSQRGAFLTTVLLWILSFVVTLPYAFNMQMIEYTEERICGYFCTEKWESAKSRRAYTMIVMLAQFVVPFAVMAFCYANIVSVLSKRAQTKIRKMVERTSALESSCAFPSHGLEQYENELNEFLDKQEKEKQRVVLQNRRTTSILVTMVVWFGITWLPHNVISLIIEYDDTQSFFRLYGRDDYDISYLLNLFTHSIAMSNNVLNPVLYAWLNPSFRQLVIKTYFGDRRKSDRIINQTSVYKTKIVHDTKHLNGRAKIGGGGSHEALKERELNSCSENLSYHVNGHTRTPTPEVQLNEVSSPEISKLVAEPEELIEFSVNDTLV
Experimental: as §1, §2

[3] = biological target: T3, NPR-3 (Caenorhabditis elegans, UniProt P90745); experiment: IP accumulation assay, co-transfected Gα16, NPR-3; details: 1 h, HBSS + 20 mM LiCl, HEK293 receptor + Gα16, HTRF IP-One, mean of >=3 independent experiments
T3 construct: expressed in transfected cells; host or cells: HEK293
T3 sequence (P90745 1-376): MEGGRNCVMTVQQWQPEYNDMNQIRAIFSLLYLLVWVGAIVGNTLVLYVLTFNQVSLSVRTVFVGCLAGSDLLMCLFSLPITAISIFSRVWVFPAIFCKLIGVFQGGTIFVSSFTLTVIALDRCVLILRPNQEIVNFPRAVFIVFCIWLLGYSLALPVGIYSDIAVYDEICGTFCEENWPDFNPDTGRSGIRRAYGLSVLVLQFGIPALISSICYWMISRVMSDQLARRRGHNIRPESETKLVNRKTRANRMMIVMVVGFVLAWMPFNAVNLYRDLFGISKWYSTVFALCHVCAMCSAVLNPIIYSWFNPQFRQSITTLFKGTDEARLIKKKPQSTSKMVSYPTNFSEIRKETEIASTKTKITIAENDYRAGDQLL
Experimental: as §1, §2

[4] = biological target: T3, NPR-3; experiment: cAMP reporter gene assay, Gs (no forskolin), NPR-3; details: no forskolin, 4 h, transiently transfected HEK293, CRE-luciferase reporter, mean of >=3 independent experiments
Experimental: Activation of Gs and Gi/o was assessed with a cAMP reporter gene assay. HEK293 cells grown to 70–80% confluency in 6-well plates were transiently co-transfected with vectors encoding the receptor and the cAMP reporter gene plasmid pGL4.29 [luc2P/CRE/Hygro] (Promega; 4 μg total, 1:1 ratio) using Metafectene Pro (3 μl/μg DNA; Biontex) following the manufacturer’s instructions. 16 h post transfection, the cells were seeded into white 384-well plates at a density of 20,000 cells/well. On the next day, the medium was removed and the cells were stimulated with 20 μl of peptide solution (or forskolin as positive control) in serum-free DMEM for 4 h. For measuring Gi/o activity, the peptide solutions additionally contained 1 μM forskolin to elevate cellular cAMP levels. After incubation, the luciferase substrate OneGlo in lysis buffer (Promega) was added and the luminescence was measured in a microplate reader Tecan Spark (Tecan). Data were analyzed with GraphPad Prism 5.03 and are shown as fold of basal or fold of forskolin in case of Gαi/o activity.
For in vitro activation, data is presented as mean ± SEM of at least three independent experiments conducted in technical triplicate. […] For the C. elegans NPRs, we considered the strongest response elicited by any of the peptides downstream of a particular receptor as the receptor’s maximal signal. This may or may not be the biological maximum that can be reached by the ‘true’ endogenous agonist. For the human receptors, the response to the established endogenous agonist reflected the maximal signal.

[5] = test system: NPR-6; experiment: IP accumulation assay, co-transfected Gα16, NPR-6; details: 1 h, HBSS + 20 mM LiCl, HEK293 receptor + Gα16, HTRF IP-One, mean of >=3 independent experiments
Experimental: as §1, §2

[6] = 0.1 nM peptide (so in the source)

APKPKFIRF-NH2 [FLP-5-1, C. elegans FMRFamide-like peptide, C-terminally amidated, synthesized by SPPS]
IP assay endog. Gαq + mock, NPR-5b [1, 6]: 0.93 x-fold of basal
IP assay endog. Gαq + mock, NPR-5b ([1]; 10 µM peptide): 1.11 x-fold of basal
IP assay endog. Gαq + Gα16, NPR-1 [2, 6]: 0.90 x-fold of basal
IP assay endog. Gαq + Gα16, NPR-1 ([2]; 10 µM peptide): 0.81 x-fold of basal
IP assay endog. Gαq + Gα16, NPR-3 [3, 6]: 0.93 x-fold of basal
IP assay endog. Gαq + Gα16, NPR-3 ([3]; 10 µM peptide): 0.81 x-fold of basal
cAMP assay Gs, NPR-3 ([4]; 0.1 µM peptide): 0.86 x-fold of basal
cAMP assay Gs, NPR-3 ([4]; 10 µM peptide): 0.85 x-fold of basal
IP assay endog. Gαq + Gα16, NPR-6 [5, 6]: 1.01 x-fold of basal
IP assay endog. Gαq + Gα16, NPR-6 ([5]; 10 µM peptide): 0.96 x-fold of basal
